Where two headings read alike, the source gives them in different places.
Assays:
Puccinia triticina = test: Wheat Brown Rust (PUCCRT) disease control on wheat seedlings; assay type: in vivo; details: Low Volume (121.5 g/H)
Procedure: Technical grades of materials were dissolved in acetone, which were then mixed with nine volumes of water containing 110 ppm Triton X-100. The fungicide solutions were applied onto wheat seedlings using an automated booth sprayer to run-off. All sprayed plants were allowed to air dry prior to further handling. All fungicides were evaluated using the aforementioned method for their activity vs. all target diseases, unless stated otherwise. Wheat leaf blotch and brown rust activity were also evaluated using track spray applications, in which case the fungicides were formulated as EC formulations, containing 0.1% Trycol 5941 in the spray solutions. Wheat plants (variety Yuma) were grown from seed in a greenhouse in 50% mineral soil/50% soil-less Metro mix until the first leaf was fully emerged, with 7-10 seedlings per pot. These plants were inoculated with an aqueous spore suspension of Septoria tritici either prior to or after fungicide treatments. After inoculation the plants were kept in 100% relative humidity (one day in a dark dew chamber followed by two to three days in a lighted dew chamber at 20° C.) to permit spores to germinate and infect the leaf. The plants were then transferred to a greenhouse set at 20° C. for disease to develop. When disease symptoms were fully expressed on the 1st leaves of untreated plants, infection levels were assessed on a scale of 0 to 100 percent disease severity. Percent disease control was calculated using the ratio of disease severity on treated plants relative to untreated plants. Example B: Evaluation of Fungicidal Activity: Wheat Brown Rust (Puccinia triticina; Synonym: Puccinia recondita f. sp. tritici; Bayer code PUCCRT) Wheat plants (variety Yuma) were grown from seed in a greenhouse in 50% mineral soil/50% soil-less Metro mix until the first leaf was fully emerged, with 7-10 seedlings per pot. These plants were inoculated with an aqueous spore suspension of Puccinia triticina either prior to or after fungicide treatments. After inoculation the plants were kept in a dark dew room at 22° C. with 100% relative humidity overnight to permit spores to germinate and infect the leaf. The plants were then transferred to a greenhouse set at 24° C. for disease to develop. Fungicide formulation, application and disease assessment followed the procedures as described in the Example A.

Zymoseptoria tritici = test: Leaf Blotch of Wheat (SEPTTR) disease control on wheat seedlings; assay type: in vivo; details: Low Volume (121.5 g/H)
Procedure: Example A: Evaluation of Fungicidal Activity: Leaf Blotch of Wheat (Mycosphaerella graminicola; Anamorph: Zymoseptoria tritici; Bayer code […]) Technical grades of materials were dissolved in acetone, which were then mixed with nine volumes of water containing 110 ppm Triton X-100. The fungicide solutions were applied onto wheat seedlings using an automated booth sprayer to run-off. All sprayed plants were allowed to air dry prior to further handling. All fungicides were evaluated using the aforementioned method for their activity vs. all target diseases, unless stated otherwise. Wheat leaf blotch and brown rust activity were also evaluated using track spray applications, in which case the fungicides were formulated as EC formulations, containing 0.1% Trycol 5941 in the spray solutions. Wheat plants (variety Yuma) were grown from seed in a greenhouse in 50% mineral soil/50% soil-less Metro mix until the first leaf was fully emerged, with 7-10 seedlings per pot. These plants were inoculated with an aqueous spore suspension of Septoria tritici either prior to or after fungicide treatments. After inoculation the plants were kept in 100% relative humidity (one day in a dark dew chamber followed by two to three days in a lighted dew chamber at 20° C.) to permit spores to germinate and infect the leaf. The plants were then transferred to a greenhouse set at 20° C. for disease to develop. When disease symptoms were fully expressed on the 1st leaves of untreated plants, infection levels were assessed on a scale of 0 to 100 percent disease severity. Percent disease control was calculated using the ratio of disease severity on treated plants relative to untreated plants.

[1] = 24 h, 1 Day Protectant, read-out: PUCCRT disease control, 1 DP
[2] = 72 h, 3 Day Curative, read-out: PUCCRT disease control, 3 DC
[3] = 24 h, 1 Day Protectant, read-out: SEPTTR disease control, 1 DP
[4] = 72 h, 3 Day Curative, read-out: SEPTTR disease control, 3 DC

Compound	pest or weed control at 121.5 g/ha (Puccinia triticina; [1])	pest or weed control at 121.5 g/ha (Puccinia triticina; [2])	pest or weed control at 121.5 g/ha (Zymoseptoria tritici; [3])	pest or weed control at 121.5 g/ha (Zymoseptoria tritici; [4])
CCCC[C@H]1[C@H](C)OC(=O)[C@@H](NC(=O)c2nccc(OC)c2OCOC(C)=O)CCO[C@@H]1COC(=O)C(C)C [Compound 32]	> 70%	> 70%	> 70%	> 70%
CCCC[C@H]1[C@H](C)OC(=O)[C@@H](NC(=O)c2nccc(OC)c2OCOC(C)=O)CCO[C@@H]1CC [Compound 34]	> 70%	> 70%	< 70%	< 70%
CCCC[C@H]1[C@H](C)OC(=O)[C@@H](NC(=O)c2nccc(OC)c2OCOC(C)=O)CCO[C@@H]1COc1ccccc1 [Compound 35]	> 70%	> 70%	> 70%	> 70%
COc1ccnc(C(=O)N[C@H]2CCOC[C@@H](Cc3ccccc3)[C@H](C)OC2=O)c1OCOC(=O)C(C)C [Compound 36]	> 70%	> 70%	> 70%	< 70%
COc1ccnc(C(=O)N[C@H]2CCO[C@H](Cc3ccccc3)[C@@H](Cc3ccccc3)[C@H](C)OC2=O)c1OCOC(=O)C(C)C [Compound 37, ((2-(((2R,3S,4S,7S)-2,3-dibenzyl-4-methyl-6-oxo-1,5-dioxonan-7-yl)carbamoyl)-4-methoxypyridin-3-yl)oxy)methyl isobutyrate]	> 70%	> 70%	> 70%	> 70%
COc1ccnc(C(=O)N[C@H]2CCO[C@H](CCc3ccccc3)[C@@H](Cc3ccc(F)cc3)[C@H](C)OC2=O)c1OCOC(=O)C(C)C [Compound 38]	> 70%	> 70%	> 70%	> 70%
CCCC[C@H]1[C@H](C)OC(=O)[C@@H](NC(=O)c2nccc(OC)c2OCOC(=O)C(C)C)CCO[C@@H]1COc1ccccc1 [Compound 41]	> 70%	> 70%	> 70%	> 70%
CCOCC(=O)OCOc1c(OC)ccnc1C(=O)N[C@H]1CCOC[C@@H](Cc2ccccc2)[C@H](C)OC1=O [Compound 42, ((2-(((3R,4S,7S)-3-benzyl-4-methyl-6-oxo-1,5-dioxonan-7-yl)carbamoyl)-4-methoxypyridin-3-yl)oxy)methyl 2-ethoxyacetate]	> 70%	> 70%	> 70%	> 70%
CCOCC(=O)OCOc1c(OC)ccnc1C(=O)N[C@H]1CCO[C@H](Cc2ccccc2)[C@@H](Cc2ccccc2)[C@H](C)OC1=O [Compound 44]	> 70%	> 70%	> 70%	> 70%
CCCC[C@H]1[C@H](C)OC(=O)[C@@H](NC(=O)c2nccc(OC)c2OCOC(=O)COCC)CCO[C@@H]1CCc1ccccc1 [Compound 45]	> 70%	> 70%	> 70%	> 70%
CCCC[C@H]1[C@H](C)OC(=O)[C@@H](NC(=O)c2nccc(OC)c2OCOC(=O)COCC)CCO[C@@H]1CC [Compound 46]	> 70%	> 70%	> 70%	< 70%
CCCC[C@H]1[C@H](C)OC(=O)[C@@H](NC(=O)c2nccc(OC)c2OCOC(=O)COCC)CCO[C@@H]1COc1ccccc1 [Compound 47]	> 70%	> 70%	> 70%	> 70%

— patent US9686984B2, “Macrocyclic picolinamides as fungicides” (DOW AGROSCIENCES LLC, priority 2014, dated 2017)
